Several values for one entry are separate records, joined by “and”; a condition that tells them apart may be missing. Equal values may be shown once. Inconclusive results and toxic doses are left out.
System: L1210 leukemia ip in BDF1 mice, survival T/C
Test: NCI In Vivo Anticancer Drug Screen. Data for tumor model L1210 Leukemia (intraperitoneal) in B6D2F1 (BDF1) mice
Conditions: endpoint: mean survival time, higher = longer survival
How it was run: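 Tumor cells were implanted, animals were treated, and survival was followed. The result divides the treated measurement by the vehicle-control measurement.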

SMILES: O=C1C(=O)c2ccccc2C(O)=C1CC=C(Cl)Cl
- T/C (dose: 6.2 mg/kg/injection, schedule: Q01DX009 (ip), vehicle: water): 94 % of control
- T/C (dose: 6.25 mg/kg/injection, schedule: Q01DX001 (ip), vehicle: saline): 97 % of control
- T/C (dose: 12.5 mg/kg/injection, schedule: Q01DX001 (ip), vehicle: saline): 106 % of control
- T/C (dose: 12.5 mg/kg/injection, schedule: Q01DX001 (oral), vehicle: saline): 97 % of control
- T/C (dose: 12.5 mg/kg/injection, schedule: Q01DX009 (ip), vehicle: water): 100 % of control and 96 % of control
- T/C (dose: 12.5 mg/kg/injection, schedule: Q03HX024 (ip), vehicle: water): 89 % of control
- T/C (dose: 12.5 mg/kg/injection, schedule: Q04DX003 (ip), vehicle: water): 94 % of control
- T/C (dose: 12.5 mg/kg/injection, schedule: Q08DX002 (ip), vehicle: water): 98 % of control
- T/C (dose: 25.0 mg/kg/injection, schedule: Q01DX001 (ip), vehicle: saline): 104 % of control
- T/C (dose: 25.0 mg/kg/injection, schedule: Q01DX001 (oral), vehicle: saline): 104 % of control
- T/C (dose: 25.0 mg/kg/injection, schedule: Q01DX009 (ip), vehicle: water): 102 % of control and 96 % of control
- T/C (dose: 25.0 mg/kg/injection, schedule: Q03HX016 (ip), vehicle: water): 89 % of control
- T/C (dose: 25.0 mg/kg/injection, schedule: Q03HX024 (ip), vehicle: water): 90 % of control
- T/C (dose: 25.0 mg/kg/injection, schedule: Q04DX003 (ip), vehicle: water): 95 % of control
- T/C (dose: 25.0 mg/kg/injection, schedule: Q08DX002 (ip), vehicle: water): 95 % of control
- T/C (dose: 25.0 mg/kg/injection, schedule: Q## X008 (ip), vehicle: water): 91 % of control
- T/C (dose: 50.0 mg/kg/injection, schedule: Q01DX001 (ip), vehicle: saline): 106 % of control
- T/C (dose: 50.0 mg/kg/injection, schedule: Q01DX001 (ip), vehicle: water): 102 % of control
- T/C (dose: 50.0 mg/kg/injection, schedule: Q01DX001 (oral), vehicle: saline): 98 % of control
- T/C (dose: 50.0 mg/kg/injection, schedule: Q01DX009 (ip), vehicle: water): 113 % of control and 100 % of control
- T/C (dose: 50.0 mg/kg/injection, schedule: Q03HX016 (ip), vehicle: water): 91 % of control
- T/C (dose: 50.0 mg/kg/injection, schedule: Q03HX024 (ip), vehicle: water): 96 % of control
- T/C (dose: 50.0 mg/kg/injection, schedule: Q04DX003 (ip), vehicle: water): 97 % of control
- T/C (dose: 50.0 mg/kg/injection, schedule: Q08DX002 (ip), vehicle: water): 92 % of control
- T/C (dose: 50.0 mg/kg/injection, schedule: Q## X008 (ip), vehicle: water): 88 % of control
- T/C (dose: 75.0 mg/kg/injection, schedule: Q03HX024 (ip), vehicle: water): 90 % of control
- T/C (dose: 75.0 mg/kg/injection, schedule: Q04DX003 (ip), vehicle: water): 95 % of control
- T/C (dose: 100.0 mg/kg/injection, schedule: Q01DX001 (oral), vehicle: saline): 97 % of control and 106 % of control
- T/C (dose: 100.0 mg/kg/injection, schedule: Q03HX016 (ip), vehicle: water): 88 % of control
- T/C (dose: 100.0 mg/kg/injection, schedule: Q03HX024 (ip), vehicle: water): 92 % of control
- T/C (dose: 100.0 mg/kg/injection, schedule: Q08DX002 (ip), vehicle: water): 92 % of control
- T/C (dose: 100.0 mg/kg/injection, schedule: Q## X008 (ip), vehicle: water): 92 % of control
- T/C (dose: 200.0 mg/kg/injection, schedule: Q03HX016 (ip), vehicle: water): 90 % of control
- T/C (dose: 200.0 mg/kg/injection, schedule: Q## X008 (ip), vehicle: water): 94 % of control

SMILES: COc1ccc(-c2csc(-c3ccccc3)n2)cc1N=Cc1ccc(N(CCCl)CCCl)c(OC)c1
- T/C (dose: 0.96 mg/kg/injection, schedule: Q01DX009 (ip), vehicle: acetone): 106 % of control
- T/C (dose: 1.4 mg/kg/injection, schedule: Q01DX009 (ip), vehicle: acetone): 103 % of control
- T/C (dose: 5.0 mg/kg/injection, schedule: Q01DX015 (ip), vehicle: carboxymethylcellulose (CMC)): 120 % of control
- T/C (dose: 8.0 mg/kg/injection, schedule: Q01DX015 (ip), vehicle: carboxymethylcellulose (CMC)): 113 % of control
- T/C (dose: 10.0 mg/kg/injection, schedule: Q01DX009 (ip), vehicle: acetone): 154 % of control
- T/C (dose: 20.0 mg/kg/injection, schedule: Q01DX009 (ip), vehicle: acetone): 166 % of control
- T/C (dose: 20.0 mg/kg/injection, schedule: Q01DX015 (ip), vehicle: carboxymethylcellulose (CMC)): 153 % of control
- T/C (dose: 40.0 mg/kg/injection, schedule: Q01DX009 (ip), vehicle: acetone): 102 % of control
- T/C (dose: 66.0 mg/kg/injection, schedule: Q01DX015 (ip), vehicle: carboxymethylcellulose (CMC)): 101 % of control
- T/C (dose: 100.0 mg/kg/injection, schedule: Q01DX015 (ip), vehicle: carboxymethylcellulose (CMC)): 104 % of control

SMILES: CCCN(CCC)[N+](=O)[O-]
- T/C (dose: 100.0 mg/kg/injection, schedule: Q01DX001 (ip), vehicle: other): 98 % of control
- T/C (dose: 100.0 mg/kg/injection, schedule: Q04DX003 (ip), vehicle: other): 104 % of control
- T/C (dose: 200.0 mg/kg/injection, schedule: Q01DX001 (ip), vehicle: other): 93 % of control
- T/C (dose: 200.0 mg/kg/injection, schedule: Q04DX003 (ip), vehicle: other): 101 % of control
- T/C (dose: 400.0 mg/kg/injection, schedule: Q01DX001 (ip), vehicle: other): 97 % of control
- T/C (dose: 400.0 mg/kg/injection, schedule: Q04DX003 (ip), vehicle: other): 98 % of control

SMILES: CCCCN(CCCC)CC(O)c1ccnc2cc3c(cc12)OCO3 (configuration not stated)
- T/C (dose: 25.0 mg/kg/injection, schedule: Q01DX009 (ip), vehicle: other): 102 % of control
- T/C (dose: 50.0 mg/kg/injection, schedule: Q01DX009 (ip), vehicle: other): 110 % of control
- T/C (dose: 100.0 mg/kg/injection, schedule: Q01DX001 (ip), vehicle: saline): 97 % of control
- T/C (dose: 100.0 mg/kg/injection, schedule: Q01DX009 (ip), vehicle: other): 111 % of control

SMILES: CC1(C)/C(=C/c2ccccc2)C(=O)c2ccccc21
- T/C (dose: 100.0 mg/kg/injection, schedule: Q01DX009 (ip), vehicle: saline): 101 % of control
- T/C (dose: 100.0 mg/kg/injection, schedule: Q04DX003 (ip), vehicle: saline): 96 % of control
- T/C (dose: 200.0 mg/kg/injection, schedule: Q01DX009 (ip), vehicle: saline): 96 % of control
- T/C (dose: 200.0 mg/kg/injection, schedule: Q04DX003 (ip), vehicle: saline): 98 % of control
- T/C (dose: 400.0 mg/kg/injection, schedule: Q01DX009 (ip), vehicle: saline): 102 % of control
- T/C (dose: 400.0 mg/kg/injection, schedule: Q04DX003 (ip), vehicle: saline): 102 % of control

SMILES: [O-][n+]1c(Cl)cccc1Cl
- T/C (dose: 15.0 mg/kg/injection, schedule: Q01DX001 (ip), vehicle: carboxymethylcellulose (CMC)): 103 % of control
- T/C (dose: 30.0 mg/kg/injection, schedule: Q01DX001 (ip), vehicle: carboxymethylcellulose (CMC)): 112 % of control
- T/C (dose: 60.0 mg/kg/injection, schedule: Q01DX001 (ip), vehicle: carboxymethylcellulose (CMC)): 105 % of control

SMILES: CCCCNC(=O)NC1CC(OC2CC(O)(C(C)=O)Cc3c(O)c4c(c(O)c32)C(=O)c2c(OC)cccc2C4=O)OC(C)C1O (configuration not stated)
- T/C (dose: 1.0 mg/kg/injection, schedule: Q04DX003 (ip), vehicle: water): 104 % of control
- T/C (dose: 2.0 mg/kg/injection, schedule: Q04DX003 (ip), vehicle: water): 97 % of control
- T/C (dose: 4.0 mg/kg/injection, schedule: Q04DX003 (ip), vehicle: water): 98 % of control
- T/C (dose: 8.0 mg/kg/injection, schedule: Q04DX003 (ip), vehicle: water): 98 % of control
- T/C (dose: 16.0 mg/kg/injection, schedule: Q04DX003 (ip), vehicle: water): 94 % of control
- T/C (dose: 32.0 mg/kg/injection, schedule: Q04DX003 (ip), vehicle: water): 101 % of control

SMILES: O=S(=O)(CCCl)Cc1ccccc1
- T/C (dose: 100.0 mg/kg/injection, schedule: Q04DX002 (ip), vehicle: saline with Tween-80): 115 % of control
- T/C (dose: 200.0 mg/kg/injection, schedule: Q04DX002 (ip), vehicle: saline with Tween-80): 94 % of control

SMILES: CC(/C=N/Nc1nnc(N/N=C/C(C)=C/c2ccccc2)c2ccccc12)=C\c1ccccc1
- T/C (dose: 50.0 mg/kg/injection, schedule: Q01DX001 (ip), vehicle: carboxymethylcellulose (CMC)): 94 % of control
- T/C (dose: 100.0 mg/kg/injection, schedule: Q01DX001 (ip), vehicle: carboxymethylcellulose (CMC)): 102 % of control
- T/C (dose: 200.0 mg/kg/injection, schedule: Q01DX001 (ip), vehicle: carboxymethylcellulose (CMC)): 96 % of control
- T/C (dose: 400.0 mg/kg/injection, schedule: Q01DX001 (ip), vehicle: carboxymethylcellulose (CMC)): 112 % of control

SMILES: CC1CN=C(N)NC1=O (configuration not stated)
- T/C (dose: 100.0 mg/kg/injection, schedule: Q01DX Z (ip), vehicle: saline): 104 % of control
- T/C (dose: 200.0 mg/kg/injection, schedule: Q01DX Z (ip), vehicle: saline): 119 % of control

Source: PubChem BioAssay AID248 (DTP/NCI, 2004)
